pIC50: −log10 of the molar value. Like-named read-outs stand apart in the source and are kept apart here.
Tests used:
C4-2 cells = assay: Cell-based killing assay of payloads (CellTiter-Glo), C4-2 cells; parameters: species or system human; conditions: 5-day incubation; for pIC50: Homo sapiens, C4-2, 120 h, average ± SD where replicates; for C4-2 % Kill: at maximum concentration tested (100 − % viable cells)
Method: (§1) To test the ability of the disclosed tubulysin payloads to kill human cell lines, an in vitro cytotoxicity assay was performed. In vitro cytotoxicity of the disclosed payloads, as well as reference compounds, were evaluated using the CellTiter-Glo Assay Kit (Promega, Cat #G7573), in which the quantity of ATP present is used to determine the number of viable cells in culture. For the assay, C4-2, HEK293, or T47D cells were seeded at 4000 cells/well on Nunclon white 96-well plates in complete growth medium (DME high glucose:Ham's F12 at 4:1, 10% FBS, 100 units/ml Penicillin, 100 ug/ml streptomycin, 53 ug/ml glutatmine, 10 ug/ml insulin, 220 ng/ml biotin, 12.5 pg/ml T3, 12.5 ug/ml Adenine, 4 ug/ml transferrin for C42 cells; DME high glucose, 10% FBS, 100 units/ml Penicillin, 100 ug/ml streptomycin, 53 ug/ml glutatmine for HEK293; RPMI, 10% FBS, 100 units/ml Penicillin, 100 ug/ml streptomycin, 53 ug/ml glutatmine, 10 ug/ml insulin, 10 mM HEPEs, 200 nM Sodium Pyruvate for T47D cells) and grown overnight at 37° C. in 5% CO2. For cell viability curves, 1:3 serially diluted payloads were added to the cells at final concentrations ranging from 100 nM to […], including a no treatment control group, and were then incubated for 5 days. After the 5-day incubation, cells were incubated at room temperature with 100 μL of CellTiter-Glo reagents for 10 minutes. Relative luminescence units (RLU) were determined on a Victor plate reader (PerkinElmer). The IC50 values were determined from a four-parameter logistic equation over a 10-point response curve (GraphPad Prism). All IC50 values are expressed in molar (M) concentration. The percent cell killing (% kill) at the maximum concentration tested was estimated from the following formula (100−% viable cells). Averages±standard deviation (SD) are included where replicate experiments were performed.

HCT15 cells = assay: cells; assay type: cell-based, human; conditions: HCT15 cells
Method: as §1
In vitro cytotoxicity of the disclosed payloads as well as reference compounds were evaluated similarly as described above except using 1000 HCT15 cells, a colorectal carcinoma cell line, in growth medium (RPMI, 10% FBS, 100 units/ml Penicillin, 100 ug/ml streptomycin, 53 ug/ml glutatmine) with or without 5 ug/mL of Verapamil.

HL60/MX2 cells = assay: Cytotoxicity in panel of MDR cell lines, HL60/MX2 (72 h and 144 h); assay type: cell-based, human; conditions: for pIC50: Homo sapiens
Method: as §1
(§2) To further test the ability of the disclosed tubulysin payloads, a cytotoxicity assay was performed using a panel of multidrug resistant (MDR) cell lines. In vitro cytotoxicity of the disclosed payloads as well as reference compounds were similarly evaluated as described above except using HCT-15 cells, a colorectal carcinoma cell line; H69AR, a doxorubicin resistant MDR derivative of the small cell lung cancer carcinoma cell line NCI-H69; MES-SA/MX2, a mitoxantrone resistant MDR derivative of the uterine sarcoma cell line MES-SA; and HL60/MX2, a mitoxantrone resistant MDR derivative of the acute promyelocytic leukemia cell line HL60. In these assays, cytotoxicity was evaluated in normal growth media (RPMI, 10% FBS, 100 units/ml Penicillin, 100 ug/ml streptomycin, and 53 ug/ml glutatmine for HCT-15 and HL60/MX2; RPMI, 20% FBS, 100 units/ml Penicillin, 100 ug/ml streptomycin, and 53 ug/ml glutatmine for H69-AR; Waymouths's:McCoy's (1:1), 10% FBS, 100 units/ml Penicillin, 100 ug/ml streptomycin, and 53 ug/ml glutatmine for MES-SA/MX2) with 1000 cells per well following 72 h and 144 h incubation with payloads.

MES-SA/MX2 cells = assay: Cytotoxicity in panel of MDR cell lines, MES-SA/MX2 (72 h and 144 h); assay type: cell-based, human; conditions: for pIC50: Homo sapiens
Method: as §1, §2

HCT-15 cells = assay: Cytotoxicity in panel of MDR cell lines, HCT-15 (72 h and 144 h); assay type: cell-based, human; conditions: for pIC50: Homo sapiens
Method: as §1, §2

H69AR cells = assay: Cytotoxicity in panel of MDR cell lines, H69AR (72 h and 144 h); assay type: cell-based, human; conditions: for pIC50: Homo sapiens
Method: as §1, §2

[1] = 72 h incubation, read-out: HL60/MX2 IC50 72 h
[2] = 144 h incubation, read-out: HL60/MX2 IC50 144 h
[3] = 72 h incubation, read-out: MES-SA/MX2 IC50 72 h
[4] = 144 h incubation, read-out: MES-SA/MX2 IC50 144 h
[5] = 72 h incubation, read-out: HCT-15 IC50 72 h
[6] = 144 h incubation, read-out: HCT-15 IC50 144 h
[7] = 72 h incubation, read-out: H69AR IC50 72 h
[8] = 144 h incubation, read-out: H69AR IC50 144 h

## CC[C@H](C)[C@H](NC(=O)[C@H]1CCCCN1C)C(=O)N(CCCCc1cn(Cc2ccccc2)nn1)[C@H](C[C@@H](OC(C)=O)c1nc(C(=O)N[C@@H](Cc2ccc(N)cc2)CC(C)(C)C(=O)O)cs1)C(C)C [IVo, (S)-4-(2-((1R,3R)-1-Acetoxy-3-((2S,3S)—N-(4-(1-benzyl-1H-1,2,3-triazol-4-yl)butyl)-3-methyl-2-((R)-1-methylpiperidine-2-carboxamido)pentanamido)-4-methylpentyl)thiazole-4-carboxamido)-5-(4-aminophenyl)-2,2-dimethylpentanoic acid]
C4-2 cells
  pIC50: 9.58
  C4-2 % Kill: 93.4%
HCT15 cells; with 5 ug/mL Verapamil, maximum % cell killing
  HCT-15 + verapamil % Kill: 97.6%
HCT15 cells; with 5 ug/mL Verapamil, read-out: HCT-15 + verapamil IC50
  pIC50: 9.96
HCT15 cells; without Verapamil, maximum % cell killing
  HCT-15 % Kill: 98.6%
HCT15 cells; Homo sapiens, HCT-15, without Verapamil, read-out: HCT-15 IC50
  pIC50: 9.43
HL60/MX2 cells; 72 h incubation
  HL60/MX2 % Kill 72 h: 98.1%
HL60/MX2 cells; 144 h incubation
  HL60/MX2 % Kill 144 h: 100%
HL60/MX2 cells; [1]
  pIC50: 10.42
HL60/MX2 cells; [2]
  pIC50: > 10.82
MES-SA/MX2 cells; 72 h incubation
  MES-SA/MX2 % Kill 72 h: 98.9%
MES-SA/MX2 cells; 144 h incubation
  MES-SA/MX2 % Kill 144 h: 99.9%
MES-SA/MX2 cells; [3]
  pIC50: 8.95
MES-SA/MX2 cells; [4]
  pIC50: 8.53
HCT-15 cells; 72 h incubation
  HCT-15 % Kill 72 h: 97.3%
HCT-15 cells; 144 h incubation
  HCT-15 % Kill 144 h: 99.7%
HCT-15 cells; [5]
  pIC50: 9.61
HCT-15 cells; [6]
  pIC50: 9.46
H69AR cells; 72 h incubation
  H69AR % Kill 72 h: 96.2%
H69AR cells; 144 h incubation
  H69AR % Kill 144 h: 99.1%
H69AR cells; [7]
  pIC50: 9.11
H69AR cells; [8]
  pIC50: 8.90

## CCCCCCN(C(=O)[C@@H](NC(=O)[C@H]1CCCCN1C)[C@@H](C)CC)[C@H](C[C@@H](OC(C)=O)c1nc(C(=O)NC(Cc2ccc(F)c(N)c2)CC(C)(C)C(=O)O)cs1)C(C)C (stereo partly drawn) [IVu, 4-({2-[(1R,3R)-1-(Acetyloxy)-3-[(2S,3S)—N-hexyl-3-methyl-2-{[(2R)-1-methylpiperidin-2-yl]formamido}pentanamido]-4-methylpentyl]-1,3-thiazol-4-yl}formamido)-5-(3-amino-4-fluorophenyl)-2,2-dimethylpentanoic acid]
C4-2 cells
  pIC50: 9.94
  C4-2 % Kill: 93.9%
HL60/MX2 cells; 72 h incubation
  HL60/MX2 % Kill 72 h: 98%
HL60/MX2 cells; 144 h incubation
  HL60/MX2 % Kill 144 h: 99.9%
HL60/MX2 cells; [1]
  pIC50: > 10.82
HL60/MX2 cells; [2]
  pIC50: > 10.82
MES-SA/MX2 cells; 72 h incubation
  MES-SA/MX2 % Kill 72 h: 98.8%
MES-SA/MX2 cells; 144 h incubation
  MES-SA/MX2 % Kill 144 h: 100%
MES-SA/MX2 cells; [3]
  pIC50: 9.27
MES-SA/MX2 cells; [4]
  pIC50: 8.92
HCT-15 cells; 72 h incubation
  HCT-15 % Kill 72 h: 97.9%
HCT-15 cells; 144 h incubation
  HCT-15 % Kill 144 h: 99.8%
HCT-15 cells; [5]
  pIC50: 9.87
HCT-15 cells; [6]
  pIC50: 9.62
H69AR cells; 72 h incubation
  H69AR % Kill 72 h: 96.4%
H69AR cells; 144 h incubation
  H69AR % Kill 144 h: 99%
H69AR cells; [7]
  pIC50: 9.20
H69AR cells; [8]
  pIC50: 8.98

## CCCCCCN(C(=O)[C@@H](NC(=O)[C@H]1CCCCN1C)[C@@H](C)CC)[C@H](C[C@@H](OC(C)=O)c1nc(C(=O)NC(Cc2ccc(F)c(NC)c2)CC(C)(C)C(=O)O)cs1)C(C)C (stereo partly drawn) [IVt, 4-(2-((1R,3R)-1-acetoxy-3-((2S,3S)—N-hexyl-3-methyl-2-((R)-1-methylpiperidine-2-carboxamido)pentanamido)-4-methylpentyl)thiazole-4-carboxamido)-5-(4-fluoro-3-(methylamino)phenyl)-2,2-dimethylpentanoic acid]
C4-2 cells
  pIC50: 9.96
  C4-2 % Kill: 94.2%
HL60/MX2 cells; 72 h incubation
  HL60/MX2 % Kill 72 h: 98.4%
HL60/MX2 cells; 144 h incubation
  HL60/MX2 % Kill 144 h: 100%
HL60/MX2 cells; [1]
  pIC50: > 10.82
HL60/MX2 cells; [2]
  pIC50: > 10.82
MES-SA/MX2 cells; 72 h incubation
  MES-SA/MX2 % Kill 72 h: 99.3%
MES-SA/MX2 cells; 144 h incubation
  MES-SA/MX2 % Kill 144 h: 100%
MES-SA/MX2 cells; [3]
  pIC50: 9.35
MES-SA/MX2 cells; [4]
  pIC50: 9.13
HCT-15 cells; 72 h incubation
  HCT-15 % Kill 72 h: 97.6%
HCT-15 cells; 144 h incubation
  HCT-15 % Kill 144 h: 99.8%
HCT-15 cells; [5]
  pIC50: 9.84
HCT-15 cells; [6]
  pIC50: 9.74
H69AR cells; 72 h incubation
  H69AR % Kill 72 h: 96.3%
H69AR cells; 144 h incubation
  H69AR % Kill 144 h: 99.3%
H69AR cells; [7]
  pIC50: 9.31
H69AR cells; [8]
  pIC50: 9.09

From US12144864B2, “Tubulysins and protein-tubulysin conjugates” (Regeneron Pharmaceuticals, Inc., priority 2018, dated 2024)
